Test results as given in PubChem BioAssay (NCI).
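Protocol summary: plate cells (96-well), add compound at 5 concentrations, incubate 48 h, interpolate endpoints linearly. GI50 marks 50% less growth. TGI: concentration producing complete growth inhibition.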

Key:
Assay in all cases: NCI-60 cell line screen, 48 h
A549 NSCLC = tested on: A549 NSCLC
NCI-H23 lung = tested on: NCI-H23 lung
SK-MEL-28 melanoma = tested on: SK-MEL-28 melanoma
NCI-H460 lung = tested on: NCI-H460 lung
KM12 colon = tested on: KM12 colon
OVCAR-8 ovarian = tested on: OVCAR-8 ovarian
RPMI-8226 leukemia = tested on: RPMI-8226 leukemia
MOLT-4 leukemia = tested on: MOLT-4 leukemia
U251 CNS = tested on: U251 CNS
MDA-MB-435 = tested on: MDA-MB-435
EKVX NSCLC = tested on: EKVX NSCLC
ACHN renal = tested on: ACHN renal
RXF 393 renal = tested on: RXF 393 renal
MALME-3M melanoma = tested on: MALME-3M melanoma
SN12C renal = tested on: SN12C renal
CCRF-CEM leukemia = tested on: CCRF-CEM leukemia
MCF7 breast = tested on: MCF7 breast
SK-MEL-2 melanoma = tested on: SK-MEL-2 melanoma
HS 578T breast = tested on: HS 578T breast
K-562 leukemia = tested on: K-562 leukemia
HCT-15 colon = tested on: HCT-15 colon
OVCAR-3 ovarian = tested on: OVCAR-3 ovarian
UO-31 renal = tested on: UO-31 renal
SR leukemia = tested on: SR leukemia
NCI/ADR-RES ovarian = tested on: NCI/ADR-RES ovarian
HOP-92 NSCLC = tested on: HOP-92 NSCLC
PC-3 prostate = tested on: PC-3 prostate
UACC-62 melanoma = tested on: UACC-62 melanoma
SK-OV-3 ovarian = tested on: SK-OV-3 ovarian
HOP-62 NSCLC = tested on: HOP-62 NSCLC

C/C(=N\N=C1/C(=O)Nc2ccc(Cl)cc21)c1ccc2c(c1)Nc1ccccc1S2
TGI (A549 NSCLC): 17.8 µM | GI50 (NCI-H23 lung): 7.3 µM | TGI (NCI-H23 lung): 21.7 µM | GI50 (SK-MEL-28 melanoma): 6.23 µM | TGI (SK-MEL-28 melanoma): 22.8 µM | GI50 (NCI-H460 lung): 3.17 µM | TGI (NCI-H460 lung): 10.3 µM | GI50 (KM12 colon): 3.51 µM | TGI (KM12 colon): 14.1 µM | GI50 (OVCAR-8 ovarian): 4.2 µM | TGI (OVCAR-8 ovarian): 17.9 µM | GI50 (RPMI-8226 leukemia): 5.86 µM | TGI (RPMI-8226 leukemia): 99.6 µM | GI50 (MOLT-4 leukemia): 2.71 µM | TGI (MOLT-4 leukemia): 8.28 µM | GI50 (U251 CNS): 5.62 µM | TGI (U251 CNS): 18.4 µM | GI50 (MDA-MB-435): 3.27 µM | TGI (MDA-MB-435): 15.5 µM | GI50 (EKVX NSCLC): 4.68 µM | TGI (EKVX NSCLC): 22.9 µM | GI50 (ACHN renal): 3.55 µM | TGI (ACHN renal): 14.1 µM | GI50 (RXF 393 renal): 5.05 µM | TGI (RXF 393 renal): 19 µM | GI50 (MALME-3M melanoma): 7.44 µM | TGI (MALME-3M melanoma): 21.5 µM | GI50 (SN12C renal): 4.47 µM | TGI (SN12C renal): 16.8 µM | GI50 (CCRF-CEM leukemia): 3.42 µM | TGI (CCRF-CEM leukemia): 98.5 µM | GI50 (MCF7 breast): 3.33 µM | TGI (MCF7 breast): 13.5 µM | GI50 (SK-MEL-2 melanoma): 6.77 µM | TGI (SK-MEL-2 melanoma): 20.8 µM | GI50 (HS 578T breast): 6.86 µM | TGI (HS 578T breast): 41.1 µM | GI50 (K-562 leukemia): 4.14 µM | TGI (K-562 leukemia): > 100 µM | GI50 (HCT-15 colon): 6.61 µM | TGI (HCT-15 colon): 24 µM | GI50 (OVCAR-3 ovarian): 10.2 µM | TGI (OVCAR-3 ovarian): 23.4 µM | GI50 (UO-31 renal): 4.05 µM | TGI (UO-31 renal): 19.6 µM | GI50 (SR leukemia): 4.4 µM | TGI (SR leukemia): 56.8 µM | GI50 (NCI/ADR-RES ovarian): 4.74 µM | TGI (NCI/ADR-RES ovarian): 24.6 µM | GI50 (HOP-92 NSCLC): 2.92 µM | TGI (HOP-92 NSCLC): 11.3 µM | GI50 (PC-3 prostate): 3.14 µM | TGI (PC-3 prostate): 16.3 µM | GI50 (UACC-62 melanoma): 4.2 µM | TGI (UACC-62 melanoma): 17.1 µM | GI50 (SK-OV-3 ovarian): 11.9 µM | TGI (SK-OV-3 ovarian): 30.7 µM | GI50 (HOP-62 NSCLC): 12.5 µM | TGI (HOP-62 NSCLC): 27.8 µM
